Paper PMC12486805, “Preclinical evaluation of tridecaptin M: in vitro and in vivo efficacy against colistin-resistant Gram-negative bacterial pathogens and pharmacokinetics” (Antimicrobial Agents and Chemotherapy, 2025)
≈ marks a conversion by molar mass, not a printed value. Like-named read-outs stand apart in the source and are kept apart here. Where a SMILES comes first, the peptide text is derived from it. [ ]: non-standard residue; d: D form. The star is where a group is joined. d(aIle) = CC[C@H](C)[C@@H](N)C(=O)O; X1 = CC[C@H](C)CCCCC(=O)*; dDab = NCC[C@@H](N)C(=O)O; Dab = NCC[C@H](N)C(=O)O

Columns and labels:
[1] = system: K. pneumoniae; type: cell-based, Klebsiella pneumoniae
Method: The MIC for all isolates was determined using the broth microdilution method. This involved preparing CA-MHB medium and serially diluting antibiotic solutions by a factor of two. The test organism was adjusted to a concentration of ≈5 × 10^5 CFU/mL. In a sterile 96-well microtiter plate, 100 µL of CA-MHB, along with 100 µL of each antibiotic, was added, and serial dilutions were made. A 100 µL suspension of the organism was added to each well and mixed, resulting in a total reaction volume of 200 µL per well. The plate was then incubated at 37°C for 16–18 h. The MIC was identified as the lowest concentration of antibiotic that prevented any visible growth of the organism ([16]).

[2] = system: Salmonella typhimurium; type: cell-based
Method: The Salmonella typhimurium histidine-dependent engineered tester strains are allowed to incubate with S9 enzyme mix or PBS (without S9 set) for 30 min at 35°C. After incubation, the mixture was added to 2 mL of top agar tubes maintained at 46 ± 2°C and plated onto minimal glucose agar plates. After solidification, the plates are incubated at 37°C. Salmonella typhimurium auxotrophic mutants, if grown on minimal media, are counted as the number of revertant colonies due to the mutagenic potential of the compound tested. Positive controls, growth controls, and sterility checks are included during the experimentation for the sensitivity of the experiment ([38]).

[3] = Method: Acute toxicity was performed on Balb/c female mice, 8 weeks old. This study was adopted and modified from a study described previously ([39]). Initial screening was done with 100 mg/kg, 200 mg/kg, 400 mg/kg, and 600 mg/kg doses of tridecaptin M and vehicle control (100% DMSO). […] Eight mice were taken, four in each group ([…]), one group was administered vehicle control (DMSO), and the other group was administered 600 mg/kg of tridecaptin M. After 3 days, blood was collected to obtain serum for biochemical tests, and mice were euthanized to remove organs (preserved in 10% formalin) for histopathological analysis.
Remark: listed apart in the source
[4] = subcutaneous, 5 mg/kg b.w., plasma

Work on `CC[C@H](C)CCCCC(=O)NCC(=O)N[C@H](CCN)C(=O)NCC(=O)N[C@H](CO)C(=O)N[C@H](Cc1c[nH]c2ccccc12)C(=O)N[C@@H](CO)C(=O)N[C@@H](CCN)C(=O)N[C@H](CCN)C(=O)N[C@H](C(=O)N[C@@H](CCC(=O)O)C(=O)N[C@H](C(=O)N[C@@H](C(=O)N[C@@H](CO)C(=O)O)[C@@H](C)CC)[C@@H](C)CC)[C@@H](C)CC` [Tridecaptin M, tridecaptin M] (X1-G[dDab]G[dS][dW]S[Dab][dDab]IEI[d(aIle)]S-OH) yielded an MIC [1] of 4 µg/mL (≈ 2.69 µM), an MIC90 [1] of 8 µg/mL (≈ 5.37 µM) and an MIC range [1] of 2 to 8 µg/mL. For the same molecule, the MIC values [1] was 2 to 8 µg/mL, the “AMES test Remark” value ([2]; 0.03 μg/plate) was “Mutagenic response not observed” and the “AMES test TA98” value ([2]; 0.03 μg/plate) was “NC, NR”. The “AMES test TA100” value ([2]; 0.03 μg/plate) was “NC, NR”, the “AMES test TA102” value ([2]; 0.03 μg/plate) was “NC, NR” and the “AMES test TA1535” value ([2]; 0.03 μg/plate) was “NC, NR”. The “AMES test TA1537” value ([2]; 0.03 μg/plate) was “NC, NR”, the “AMES test Remark” value ([2]; 0.10 μg/plate) was “Mutagenic response not observed” and the “AMES test TA98” value ([2]; 0.10 μg/plate) was “NC, NR”. For the same molecule, the “AMES test TA100” value ([2]; 0.10 μg/plate) was “NC, NR”, the “AMES test TA102” value ([2]; 0.10 μg/plate) was “NC, NR” and the “AMES test TA1535” value ([2]; 0.10 μg/plate) was “NC, NR”. The “AMES test TA1537” value ([2]; 0.10 μg/plate) was “NC, NR”, the “AMES test Remark” value ([2]; 0.32 μg/plate) was “Mutagenic response not observed” and the “AMES test TA98” value ([2]; 0.32 μg/plate) was “NC, NR”. The “AMES test TA100” value ([2]; 0.32 μg/plate) was “NC, NR”, the “AMES test TA102” value ([2]; 0.32 μg/plate) was “NC, NR” and the “AMES test TA1535” value ([2]; 0.32 μg/plate) was “NC, NR”. For the same molecule, the “AMES test TA1537” value ([2]; 0.32 μg/plate) was “NC, NR”, the “AMES test Remark” value ([2]; 1.00 μg/plate) was “Mutagenic response not observed” and the “AMES test TA98” value ([2]; 1.00 μg/plate) was “NC, NR”. For the same molecule, the “AMES test TA100” value ([2]; 1.00 μg/plate) was “NC, NR”, the “AMES test TA102” value ([2]; 1.00 μg/plate) was “NC, NR” and the “AMES test TA1535” value ([2]; 1.00 μg/plate) was “NC, NR”. For the same molecule, the “AMES test TA1537” value ([2]; 1.00 μg/plate) was “NC, NR”, the “AMES test Remark” value ([2]; 3.16 μg/plate) was “Mutagenic response not observed” and the “AMES test TA98” value ([2]; 3.16 μg/plate) was “NC, NR”. The “AMES test TA100” value ([2]; 3.16 μg/plate) was “NC, NR”, the “AMES test TA102” value ([2]; 3.16 μg/plate) was “NC, NR” and the “AMES test TA1535” value ([2]; 3.16 μg/plate) was “NC, NR”. The “AMES test TA1537” value ([2]; 3.16 μg/plate) was “NC, NR”, the “AMES test Remark” value ([2]; 10 μg/plate) was “Cytotoxicity observed” and the “AMES test TA98” value ([2]; 10 μg/plate) was “PI, RC”. The “AMES test TA100” value ([2]; 10 μg/plate) was “PI, RC”, the “AMES test TA102” value ([2]; 10 μg/plate) was “PI, RC” and the “AMES test TA1535” value ([2]; 10 μg/plate) was “PI, RC”. For the same molecule, the “AMES test TA1537” value ([2]; 10 μg/plate) was “PI, RC”, the “effect on Salmonella typhimurium tester strains” value ([2]; 10 µg/plate and above) was “cytotoxic” and the mutagenic potential ([2]; 3.16, 1.00, 0.32 and 0.10 µg/plate, presence and absence of S9) was “did not show any mutagenic potential”. The “SGPT (serum)” value ([3]; 600 mg/kg s.c., female mouse TF-2, day 3) was 112 Units/L, the mortality ([3]; single s.c. dose 100-600 mg/kg) was “No mortality was observed” and the “histopathology of heart, kidney, liver, brain, spleen” value ([3]; single s.c. dose 100-600 mg/kg, vs vehicle control) was “No signs of toxicity or pathological changes”. The “dose up to which safety is confirmed” value ([3]; subcutaneous administration) was “up to 600 mg/kg”, the “Cmax relative to the MIC value” (intravenous, 5mg/kg b.w.) was “about 10 times” and the “time plasma concentration maintained above MIC (4µg/mL)” value (intravenous, 5mg/kg b.w.) was “about 4 h”. It also gave a Cmax (intravenous, 5 mg/kg b.w., plasma, 5 mg/kg) of 43200 ± 6020 ng/mL, a CL [4] of 4.95 ± 0.24 mL/min/kg and a Vss [4] of 2.63 ± 0.45 L/kg. It also gave a T1/2 (subcutaneous, 5 mg/kg b.w., plasma, 5 mg/kg) of 8.56 ± 1.60 h.
